The values below are quoted from earlier work in US20080260864A1, “Topical Compositions for the Treatment of Depilation-Induced Irritation or Prevention Thereof” (MEDIDERMIS LTD., priority 2005, published 2008).

This data set relates to skin / tissue.
Where [1] appears, read: Hawley's Condensed Chemical Dictionary.

As for `[Al+3].[Cl-].[Cl-].[Cl-]` [Anhydrous aluminium chloride, Aluminium chloride anhydrous], under setting [1], the irritancy to tissue result is recorded as “powerful irritant” and the toxicity by ingestion entry is given as “moderately toxic”.

For `S1SSSSSSS1` [Sulfur], the skin irritation entry (The Merck Index) is listed as “may cause skin irritation”. The “effect of repeated applications” value (UpToDate drug information) was “may cause contact dermatitis”.
